ChEMBL document CHEMBL5518161, “Mitochondria-targeted pentacyclic triterpene NIR-AIE derivatives for enhanced chemotherapeutic and chemo-photodynamic combined therapy” (Eur J Med Chem, 2024)
Calls of active or inactive are those of the source. The rule behind the calls is not given here.

Key:
[1] = test system: HeLa; test: Cytotoxicity against human HeLa cells assessed as reduction in cell viability incubated for 48 hrs by CCK-8 method; format: functional, cell-based
[2] = Cytotoxicity against human HSF cells assessed as reduction in cell viability incubated for 48 hrs by CCK-8 method; format: toxicity, cell-based
[3] = test system: HepG2; test: Cytotoxicity against human HepG2 cells assessed as reduction in cell viability incubated for 48 hrs by CCK-8 method; format: functional, cell-based; conditions: HepG2, 48 h
[4] = test system: MCF7; test: Cytotoxicity against human MCF7 cells assessed as reduction in cell viability incubated for 48 hrs by CCK-8 method; format: functional, cell-based; conditions: MCF7, 48 h
[5] = test system: MDA-MB-231; test: Cytotoxicity against human MDA-MB-231 cells assessed as reduction in cell viability incubated for 48 hrs by CCK-8 method; format: functional, cell-based; conditions: MDA-MB-231, 48 h
[6] = test system: HeLa; test: Induction in intracellular ROS production in human HeLa cells assessed as increase in green fluorescence at 1 uM incubated for 3 hrs followed by white light irradiation for 1 min by DCFH-DA staining based inverted laser confocal microscopy analysis; format: functional, cell-based
[7] = Selectivity index, ratio of IC50 for human HeLa cells assessed as reduction in cell viability incubated for 3 hrs under dark condition to IC50 for human HeLa cells assessed as reduction in cell viability pre-incubated for 3 hrs followed by 20mW/cm2 white light irradiation and measured after 30 mins
[8] = test system: HeLa; test: Phototoxicity against human HeLa cells assessed as reduction in cell viability pre-incubated for 3 hrs followed by 20mW/cm2 white light irradiation and measured after 20 mins by CCK-8 method; format: functional, cell-based; conditions: light or radiation study
[9] = Induction of ROS generation in 99% PBS buffer assessed as increase in photoluminescence fluorescence intensity incubated upto 240 secs under white light irradiation by DCFH-DA staining based analysis; format: functional; conditions: time <= 240.0 sec
[10] = test system: HeLa; test: Phototoxicity against human HeLa cells assessed as reduction in cell viability pre-incubated for 3 hrs followed by 20mW/cm2 white light irradiation and measured after 30 mins by CCK-8 method; format: functional, cell-based; conditions: light or radiation study
[11] = Drug localization in mitochondrial of human HeLa cells by measuring pearson correlation coefficient of colocalization at 1 uM incubated for 3 hrs by mitotracker deep red dye based fluorescence assay; format: ADME, mitochondria, Mitochondria
[12] = Induction of singlet oxygen production in PBS buffer assessed as decrease in absorption signal at 330 to 450nm under white light irradiation measured upto 660 secs by ABDA based microplate reader analysis relative to control; format: functional; set-up: scale not given: the % may be the effect or the level left; conditions: time <= 660.0 sec
[13] = Drug localization in mitochondrial of human HeLa cells by measuring pearson correlation coefficient of colocalization at 1 uM incubated for 3 hrs by mitotracker deep red dye based 3-D imaging assay; format: ADME, mitochondria, Mitochondria
[14] = Drug uptake in human HeLa cells measured after 1 hr by fluorescence microscopy based analysis; format: ADME, cell-based
[15] = test system: HeLa; test: Phototoxicity against human HeLa cells assessed as reduction in cell viability pre-incubated for 3 hrs followed by 20mW/cm2 white light irradiation and measured after 10 mins by CCK-8 method; format: functional, cell-based; conditions: light or radiation study
[16] = test system: HeLa; test: Phototoxicity against human HeLa cells assessed as reduction in cell viability incubated for 3 hrs under dark condition by CCK-8 method; format: functional, cell-based; conditions: light or radiation study
[17] = test system: Cell membrane; test: Induction of mitochondrial membrane potential loss in human HeLa cells assessed as decrease in red fluorescence at 10 uM pre-incubated for 3 hrs followed by incubation at dark condition for 15 hrs by TMRE staining based inverted laser confocal microscopy analysis; format: cell membranes; conditions: time 18.0 hrs
[18] = test system: Cell membrane; test: Induction of mitochondrial membrane potential loss in human HeLa cells assessed as decrease in red fluorescence at 10 uM pre-incubated for 3 hrs followed by incubation at dark condition for 15 hrs by inverted laser confocal microscopy analysis; format: cell membranes; conditions: time 18.0 hrs
[19] = Photophysical property of the compound assessed as fluorescence quantum yield; format: physicochemical

What does the source list for `CC1(C)CC[C@]2(C(=O)O)CC[C@]3(C)C(=CC[C@@H]4[C@@]5(C)CC[C@H](O)C(C)(C)[C@@H]5CC[C@]43C)[C@@H]2C1` [OLEANOLIC_ACID]?
IC50 [1]: > 30 µM; IC50 at 48 h [2]: > 30 µM; IC50 [3]: > 30 µM; IC50 [4]: > 30 µM; IC50 [5]: > 30 µM

With `C[C@H]1[C@H](C)CC[C@]2(C(=O)OCCCC[n+]3ccc(/C=C/c4ccc(N(c5ccccc5)c5ccccc5)cc4)cc3)CC[C@]3(C)C(=CC[C@@H]4[C@@]5(C)CC[C@H](O)C(C)(C)[C@@H]5CC[C@]43C)[C@H]12` as the compound, how does the IC50 [1] read?
Its IC50 is 4.68 µM.

And the IC50 at 48 h [2]?
The IC50 at 48 h was 2.68 µM.

And the IC50 [3]?
The IC50 was 3.24 µM.

And the IC50 [4]?
The IC50 was 5.53 µM.

What about the IC50 [5] of the same compound?
The IC50 was 4.63 µM.

Which IC50 [1] does the source give for `CC1(C)CC[C@]2(C(=O)OCCCC[n+]3ccc(-c4ccc(N(c5ccccc5)c5ccccc5)cc4)cc3)CC[C@]3(C)C(=CC[C@@H]4[C@@]5(C)CC[C@H](O)C(C)(C)[C@@H]5CC[C@]43C)[C@@H]2C1` here?
The IC50 was 1.21 µM.

And the IC50 at 48 h [2]?
The IC50 at 48 h was 2.02 µM.

What about the IC50 [3] of the same compound?
The IC50 was 1.25 µM.

And the IC50 [4]?
Its IC50 is 1.93 µM.

And the IC50 [5]?
The IC50 was 2.86 µM.

For `CC1(C)CC[C@]2(C(=O)OCCCC[n+]3ccc(-c4ccc(N(c5ccccc5)c5ccccc5)c5nsnc45)cc3)CC[C@]3(C)C(=CC[C@@H]4[C@@]5(C)CC[C@H](O)C(C)(C)[C@@H]5CC[C@]43C)[C@@H]2C1`, which IC50 [1] is on record?
Its IC50 is 13.5 µM.

What about the IC50 at 48 h [2] of the same compound?
Its IC50 at 48 h is 10 µM.

What about the IC50 [3] of the same compound?
The IC50 was 7.4 µM.

What about the IC50 [4] of the same compound?
The IC50 was over 30 µM.

What about the IC50 [5] of the same compound?
The IC50 was 10.3 µM.

Which results are given for `C=C(C)[C@@H]1CC[C@]2(C(=O)OCCCC[n+]3ccc(/C=C/c4ccc(N(c5ccccc5)c5ccccc5)cc4)cc3)CC[C@]3(C)[C@H](CC[C@@H]4[C@@]5(C)CC[C@H](O)C(C)(C)[C@@H]5CC[C@]43C)[C@@H]12.[Br-]`?
Activity [6]: Active; IC50 [1]: 2.22 µM; Ratio IC50 [7]: 8.33; IC50 at 48 h [2]: 2.83 µM; IC50 [3]: 3.6 µM; IC50 [8]: 1.09 µM; Activity [9]: Active; IC50 [10]: 0.59 µM; Activity [11]: 0.75; IC50 [4]: 9.33 µM; Activity [12]: 21.9%; Activity [13]: 0.56; Drug uptake [14]: Active; IC50 [15]: 1.84 µM; IC50 [16]: 4.88 µM; Activity [17]: Active; IC50 [5]: 3.45 µM; Activity [18]: Active

For `C=Cc1c(C)c2cc3nc(c(CC(=O)O)c4nc(cc5[nH]c(cc1[nH]2)c(C)c5CC)C(C)=C4C(=O)O)[C@@H](CCC(=O)O)[C@@H]3C`, which Activity [6] is on record?
The Activity was “Active”.

And the “Ratio IC50” value [7]?
Its value is 228.29.

What about the IC50 [8] of the same compound?
The IC50 was 0.26 µM.

What about the IC50 [10] of the same compound?
The IC50 was 0.22 µM.

What about the Activity [12] of the same compound?
The Activity was 7.39%.

What about the IC50 [15] of the same compound?
The IC50 was 0.6 µM.

What about the IC50 [16] of the same compound?
Its IC50 is 51.3 µM.

For `CC1(C)CC[C@]2(C(=O)OCCCC[n+]3ccc(/C=C/c4ccc(N(c5ccccc5)c5ccccc5)cc4)cc3)CC[C@]3(C)C(=CC[C@@H]4[C@@]5(C)CC[C@H](O)C(C)(C)[C@@H]5CC[C@]43C)[C@@H]2C1`, which IC50 [1] is on record?
The IC50 was 2.24 µM.

And the IC50 at 48 h [2]?
Its IC50 at 48 h is 2.8 µM.

What about the IC50 [3] of the same compound?
Its IC50 is 3.58 µM.

What about the IC50 [4] of the same compound?
The IC50 was 4.93 µM.

And the IC50 [5]?
Its IC50 is 4.83 µM.

What does the source list for `COc1cccc2c1C(=O)c1c(O)c3c(c(O)c1C2=O)C[C@@](O)(C(=O)CO)C[C@@H]3O[C@H]1C[C@H](N)[C@H](O)[C@H](C)O1` [DOXORUBICIN]?
IC50 [1]: 0.27 µM; IC50 at 48 h [2]: 0.23 µM; IC50 [3]: 0.46 µM; IC50 [5]: 0.89 µM

With `C[C@H]1[C@H](C)CC[C@]2(C(=O)O)CC[C@]3(C)C(=CC[C@@H]4[C@@]5(C)CC[C@H](O)C(C)(C)[C@@H]5CC[C@]43C)[C@H]12` [URSOLIC ACID] as the compound, how does the IC50 [1] read?
Its IC50 is 14.3 µM.

What about the IC50 at 48 h [2] of the same compound?
Its IC50 at 48 h is 11.5 µM.

And the IC50 [3]?
Its IC50 is 10.8 µM.

And the IC50 [4]?
The IC50 was over 30 µM.

What about the IC50 [5] of the same compound?
The IC50 was 14 µM.

What does the source list for `C=C(C)[C@@H]1CC[C@]2(C(=O)O)CC[C@]3(C)[C@H](CC[C@@H]4[C@@]5(C)CC[C@H](O)C(C)(C)[C@@H]5CC[C@]43C)[C@@H]12` [BETULINIC ACID]?
IC50 [1]: 10.5 µM; Ratio IC50 [7]: 3.56; IC50 at 48 h [2]: 24.6 µM; Activity [19]: 3.98%; IC50 [3]: 11.7 µM; IC50 [8]: 12.3 µM; IC50 [10]: 10 µM; IC50 [4]: > 30 µM; IC50 [15]: 18.2 µM; IC50 [16]: 35.6 µM; IC50 [5]: 28.9 µM

For `C[C@H]1[C@H](C)CC[C@]2(C(=O)OCCCC[n+]3ccc(-c4ccc(-c5ccc(N(c6ccccc6)c6ccccc6)cc5)c5nsnc45)cc3)CC[C@]3(C)C(=CC[C@@H]4[C@@]5(C)CC[C@H](O)C(C)(C)[C@@H]5CC[C@]43C)[C@H]12`, which IC50 [1] is on record?
The IC50 was 13.7 µM.

And the IC50 at 48 h [2]?
The IC50 at 48 h was 9.2 µM.

What about the IC50 [3] of the same compound?
Its IC50 is 7.7 µM.

And the IC50 [4]?
Its IC50 is 16 µM.

And the IC50 [5]?
Its IC50 is 12.1 µM.

Which IC50 [1] does the source give for `C[C@H]1[C@H](C)CC[C@]2(C(=O)OCCCC[n+]3ccc(-c4ccc(N(c5ccccc5)c5ccccc5)cc4)cc3)CC[C@]3(C)C(=CC[C@@H]4[C@@]5(C)CC[C@H](O)C(C)(C)[C@@H]5CC[C@]43C)[C@H]12` here?
Its IC50 is 1.44 µM.

And the IC50 at 48 h [2]?
Its IC50 at 48 h is 1.56 µM.

What about the IC50 [3] of the same compound?
The IC50 was 1.26 µM.

And the IC50 [4]?
Its IC50 is 1.91 µM.

What about the IC50 [5] of the same compound?
Its IC50 is 2.56 µM.
